Data published in patent US12624017B2, “Salt form of isoquinolinone type compound as rock inhibitor and preparation method therefor” (GUANGZHOU OCUSUN OPHTHALMIC BIOTECHNOLOGY CO., LTD., priority 2020, dated 2026).

Test system: New Zealand rabbits with normal intraocular pressure
Assay: Intraocular pressure reduction, normal intraocular pressure, eye drops in both eyes for 14 days (Operation I)
Type: in vivo, New Zealand white rabbits
Conditions: for Change in intraocular pressure: vs negative control
Excerpt: An intraocular pressure reduction effect and potential ocular toxicity of the compound of formula (I) were inspected with rabbits with normal intraocular pressure by repeated administration of eye drops for 14 days.
Male New Zealand white rabbits, aged 97 to 127 days, weighted 2.6-3.5 kg, purchased from Pizhou Oriental Breeding Co., Ltd.
The Male New Zealand white rabbits were randomly divided into 7 groups according to body weights, 6 rabbits/group. The animals in Groups 1 to 7 were administrated dropwise with a solvent/control/test article in both eyes in an administration volume of 50 μL/eye, once a day for 14 consecutive days, and the day of first administration was recorded as Day 1. The intraocular pressures of the animals were measured before administration, as well as at 1, 2, 4, 6, 8 and 10 h after administration, respectively. On Days 2 to 14, the intraocular pressures of animals in the K-115 administration group were measured at 1 h after daily administration; and intraocular pressures of the animals in the remaining groups were measured at 4 h after daily administration.

[1] = 0.5 mg/mL once a day, Day 2, 4 h after daily administration
[2] = 0.5 mg/mL once a day, Day 3, 4 h after daily administration
[3] = 0.5 mg/mL once a day, Day 4, 4 h after daily administration
[4] = 0.5 mg/mL once a day, Day 5, 4 h after daily administration
[5] = 0.5 mg/mL once a day, Day 6, 4 h after daily administration
[6] = 0.5 mg/mL once a day, Day 7, 4 h after daily administration
[7] = 0.5 mg/mL, Day 1, 1 h after administration
[8] = 0.5 mg/mL, Day 1, 2 h after administration
[9] = 0.5 mg/mL, Day 1, 4 h after administration
[10] = 0.5 mg/mL, Day 1, 6 h after administration
[11] = 0.5 mg/mL, Day 1, 8 h after administration
[12] = 0.5 mg/mL, Day 1, 10 h after administration
[13] = 0.5 mg/mL, Day 1, before administration
[14] = 1.0 mg/mL once a day, Day 2, 4 h after daily administration
[15] = 1.0 mg/mL once a day, Day 3, 4 h after daily administration
[16] = 1.0 mg/mL once a day, Day 4, 4 h after daily administration
[17] = 1.0 mg/mL once a day, Day 5, 4 h after daily administration
[18] = 1.0 mg/mL once a day, Day 6, 4 h after daily administration
[19] = 1.0 mg/mL once a day, Day 7, 4 h after daily administration
[20] = 1.0 mg/mL, Day 1, 1 h after administration
[21] = 1.0 mg/mL, Day 1, 2 h after administration
[22] = 1.0 mg/mL, Day 1, 4 h after administration
[23] = 1.0 mg/mL, Day 1, 6 h after administration
[24] = 1.0 mg/mL, Day 1, 8 h after administration
[25] = 1.0 mg/mL, Day 1, 10 h after administration
[26] = 1.0 mg/mL, Day 1, before administration
[27] = 2.0 mg/mL once a day, Day 2, 4 h after daily administration
[28] = 2.0 mg/mL once a day, Day 3, 4 h after daily administration
[29] = 2.0 mg/mL once a day, Day 4, 4 h after daily administration
[30] = 2.0 mg/mL once a day, Day 5, 4 h after daily administration
[31] = 2.0 mg/mL once a day, Day 6, 4 h after daily administration
[32] = 2.0 mg/mL once a day, Day 7, 4 h after daily administration
[33] = 2.0 mg/mL, Day 1, 1 h after administration

Cc1ccc(C(=O)OCn2cc(C)c3c(S(=O)(=O)N4CC[C@H](N)C4)cccc3c2=O)c(C)c1 [Compound of formula (I)]
Average intraocular pressure in both eyes [1]: 7.94 mmHg | Change in intraocular pressure [1]: 3.14 mmHg | Average intraocular pressure in both eyes [2]: 7.31 mmHg | Change in intraocular pressure [2]: 3.08 mmHg | Average intraocular pressure in both eyes [3]: 7.78 mmHg | Change in intraocular pressure [3]: 2.83 mmHg | Average intraocular pressure in both eyes [4]: 7.19 mmHg | Change in intraocular pressure [4]: 3.78 mmHg | Average intraocular pressure in both eyes [5]: 6.61 mmHg | Change in intraocular pressure [5]: 2.7 mmHg | Average intraocular pressure in both eyes [6]: 6.00 mmHg | Change in intraocular pressure [6]: 4.06 mmHg | Change in intraocular pressure (0.5 mg/mL once a day, Day 8, 4 h after daily administration): 4.2 mmHg | Change in intraocular pressure (0.5 mg/mL once a day, Day 9, 4 h after daily administration): 3.25 mmHg | Change in intraocular pressure (0.5 mg/mL once a day, Day 10, 4 h after daily administration): 3 mmHg | Change in intraocular pressure (0.5 mg/mL once a day, Day 11, 4 h after daily administration): 3.25 mmHg | Change in intraocular pressure (0.5 mg/mL once a day, Day 12, 4 h after daily administration): 3.28 mmHg | Change in intraocular pressure (0.5 mg/mL once a day, Day 13, 4 h after daily administration): 3.31 mmHg | Change in intraocular pressure (0.5 mg/mL once a day, Day 14, 4 h after daily administration): 3.72 mmHg | Average intraocular pressure in both eyes [7]: 8.83 mmHg | Change in intraocular pressure [7]: 1.48 mmHg | Average intraocular pressure in both eyes [8]: 7.56 mmHg | Change in intraocular pressure [8]: 3.41 mmHg | Average intraocular pressure in both eyes [9]: 7.11 mmHg | Change in intraocular pressure [9]: 4.2 mmHg | Average intraocular pressure in both eyes [10]: 9.61 mmHg | Change in intraocular pressure [10]: 2.33 mmHg | Average intraocular pressure in both eyes [11]: 9.06 mmHg | Change in intraocular pressure [11]: 3.91 mmHg | Average intraocular pressure in both eyes [12]: 9.97 mmHg | Change in intraocular pressure [12]: 4.45 mmHg | Average intraocular pressure in both eyes [13]: 10.11 mmHg | Change in intraocular pressure [13]: −0.22 mmHg | Average intraocular pressure in both eyes [14]: 7.64 mmHg | Change in intraocular pressure [14]: 3.44 mmHg | Average intraocular pressure in both eyes [15]: 7.50 mmHg | Change in intraocular pressure [15]: 2.89 mmHg | Average intraocular pressure in both eyes [16]: 7.33 mmHg | Change in intraocular pressure [16]: 3.28 mmHg | Average intraocular pressure in both eyes [17]: 7.44 mmHg | Change in intraocular pressure [17]: 3.53 mmHg | Average intraocular pressure in both eyes [18]: 6.92 mmHg | Change in intraocular pressure [18]: 2.39 mmHg | Average intraocular pressure in both eyes [19]: 7.00 mmHg | Change in intraocular pressure [19]: 3.06 mmHg | Change in intraocular pressure (1.0 mg/mL once a day, Day 8, 4 h after daily administration): 4.03 mmHg | Change in intraocular pressure (1.0 mg/mL once a day, Day 9, 4 h after daily administration): 2.5 mmHg | Change in intraocular pressure (1.0 mg/mL once a day, Day 10, 4 h after daily administration): 2.44 mmHg | Change in intraocular pressure (1.0 mg/mL once a day, Day 11, 4 h after daily administration): 2.19 mmHg | Change in intraocular pressure (1.0 mg/mL once a day, Day 12, 4 h after daily administration): 2.64 mmHg | Change in intraocular pressure (1.0 mg/mL once a day, Day 13, 4 h after daily administration): 3.33 mmHg | Change in intraocular pressure (1.0 mg/mL once a day, Day 14, 4 h after daily administration): 3.53 mmHg | Average intraocular pressure in both eyes [20]: 7.08 mmHg | Change in intraocular pressure [20]: 3.23 mmHg | Average intraocular pressure in both eyes [21]: 6.67 mmHg | Change in intraocular pressure [21]: 4.3 mmHg | Average intraocular pressure in both eyes [22]: 6.44 mmHg | Change in intraocular pressure [22]: 4.87 mmHg | Average intraocular pressure in both eyes [23]: 8.00 mmHg | Change in intraocular pressure [23]: 3.94 mmHg | Average intraocular pressure in both eyes [24]: 9.22 mmHg | Change in intraocular pressure [24]: 3.75 mmHg | Average intraocular pressure in both eyes [25]: 10.56 mmHg | Change in intraocular pressure [25]: 3.86 mmHg | Average intraocular pressure in both eyes [26]: 9.94 mmHg | Change in intraocular pressure [26]: −0.05 mmHg | Average intraocular pressure in both eyes [27]: 7.03 mmHg | Change in intraocular pressure [27]: 4.05 mmHg | Average intraocular pressure in both eyes [28]: 7.25 mmHg | Change in intraocular pressure [28]: 3.14 mmHg | Average intraocular pressure in both eyes [29]: 6.86 mmHg | Change in intraocular pressure [29]: 3.75 mmHg | Average intraocular pressure in both eyes [30]: 6.47 mmHg | Change in intraocular pressure [30]: 4.5 mmHg | Average intraocular pressure in both eyes [31]: 5.92 mmHg | Change in intraocular pressure [31]: 3.39 mmHg | Average intraocular pressure in both eyes [32]: 5.78 mmHg | Change in intraocular pressure [32]: 4.28 mmHg | Change in intraocular pressure (2.0 mg/mL once a day, Day 8, 4 h after daily administration): 4.53 mmHg | Change in intraocular pressure (2.0 mg/mL once a day, Day 9, 4 h after daily administration): 3.72 mmHg | Change in intraocular pressure (2.0 mg/mL once a day, Day 10, 4 h after daily administration): 3.81 mmHg | Change in intraocular pressure (2.0 mg/mL once a day, Day 11, 4 h after daily administration): 3.66 mmHg | Change in intraocular pressure (2.0 mg/mL once a day, Day 12, 4 h after daily administration): 3.5 mmHg | Change in intraocular pressure (2.0 mg/mL once a day, Day 13, 4 h after daily administration): 4.28 mmHg | Change in intraocular pressure (2.0 mg/mL once a day, Day 14, 4 h after daily administration): 3.91 mmHg | Average intraocular pressure in both eyes [33]: 8.56 mmHg | Change in intraocular pressure [33]: 1.75 mmHg
